Reference: patent US8603755B2, “Resistance to auxinic herbicides” (Dow AgroSciences, LLC., priority 2006, dated 2013)

Columns and labels:
Format in all cases: in vivo
[1] = tested on: Arabidopsis Group 1 line R127; test: Root growth dose response of Group 1 line R127
Procedure: (§1) The dose responses of root growth of the mutant lines treated with a variety of auxins were measured to define the level and chemical spectrum of resistance in detail.
Four additional herbicidal compounds were also tested on the Group 1 line, R127.

[2] = tested on: Group 1 mutant R009 Arabidopsis plants; test: Foliar spray application in the greenhouse, AFB5 mutant; conditions: 12 days after treatment
Procedure: (§2) FIGS. 8A-8C show a comparison of the effect of a foliar application of 200 g/ha picloram (FIG. 8A), 200 g/ha aminopyralid (FIG. 8B) or 50 g/ha 2,4-D (FIG. 8C) on wild type Col-0 and mutant R009 Arabidopsis plants. Pictures were taken 12 days after treatment of 17-day old plants.
(§3) Arabidopsis seedlings were grown for two weeks in a growth chamber (23° C.; continuous light at 120-150 μE m^−2 sec^−1), then taken to the greenhouse for three days after which plants were sprayed with herbicide using a track-sprayer to deliver the appropriate rate. Plants were then grown in the greenhouse for 12 days (22° C. under supplemented light with a 14 h: 10 h light-dark cycle) prior to photography and evaluation. […] Thus the chemical selectivity of resistance seen in seedling plate assays is maintained in adult plants with foliar exposure to the auxin herbicides.

[3] = tested on: wild type Col-0 Arabidopsis plants; test: Foliar spray application in the greenhouse, wild type; conditions: 12 days after treatment
Procedure: as §2, §3

[4] = tested on: Arabidopsis mutant axr1-3; test: Root growth response of mutant axr1-3
Procedure: (§4) FIGS. 5A-5C. Comparison of the effect of DAS534 and 2,4-D on previously characterized mutants. Measurements were performed as described in FIG. 2. Typical root lengths for untreated controls were 20, 39 and 31 mm for tir1-1, axr2-1 and axr1-3 plants respectively. (FIG. 5A) Effect of DAS534 on edm1 and R051. The deletion mutant line edm1 lacks seven genes (At4g11220 through At4g11280) including SGT1b (Tor et al., Plant Cell 14: 993-1003, 2002). Effect of DAS534 (FIG. 5B) and 2,4-D (FIG. 5C) on axr1-3, axr2-1 and tir1-1 compared with R009 and R051.
The mutant axr1-3 is defective in the rubinylation mechanism required to activate SCF complexes. […] The axr1-3 mutant was also very resistant to picloram (160-fold). […] This is consistent with its general role in the activation of SCF complexes (Schwechheimer et al., Plant Cell. 14(10):2553-2563, 2002).

[5] = tested on: Arabidopsis mutant tir1-1; test: Root growth response of mutant tir1-1
Procedure: as §4

[6] = tested on: Arabidopsis Group 1 (afb5) and Group 2 (sgt1b) mutant lines; test: Root growth dose response of picolinate auxin resistant mutants, complementation Groups 1 and 2
Procedure: FIGS. 1A-1D. […] Root lengths of Arabidopsis seedlings were measured 8 days after seeding on plates containing a range of concentrations of the test compounds and are plotted as a percentage of the root length of untreated plants in the same experiment. […] The symbols used for wild type, R009 from complementation Group 1 and R051 from complementation Group 2 are denoted in FIG. 1A.
To identify mutants resistant to picolinate auxins, EMS-mutagenized M2 seedlings were screened for resistance to DAS534, a 6-phenylpicolinate auxin (Compound 173 in WO 03/011853A1). The seedlings were grown on agarose medium containing 10 nM DAS534. […] Selection of lines for further study was based on the strength of resistance, elimination of potential siblings and the health and fertility of adult plants.
as §1

[7] = tested on: Arabidopsis seedlings (wild type / EMS M2); test: Seedling plate assay on agarose medium, root growth and morphology
Procedure: FIGS. 1A-1D. Differential effects of auxins on root growth of mutants from complementation Groups 1 and 2. Root lengths of Arabidopsis seedlings were measured 8 days after seeding on plates containing a range of concentrations of the test compounds and are plotted as a percentage of the root length of untreated plants in the same experiment. Typical root lengths for untreated controls were 21, 21 and 24 mm for wild-type, Group 1, and Group 2 plants respectively. The symbols used for wild type, R009 from complementation Group 1 and R051 from complementation Group 2 are denoted in FIG. 1A.
(§5) To identify mutants resistant to picolinate auxins, EMS-mutagenized M2 seedlings were screened for resistance to DAS534, a 6-phenylpicolinate auxin (Compound 173 in WO 03/011853A1). The seedlings were grown on agarose medium containing 10 nM DAS534. This concentration was sufficient to produce marked auxinic effects on the seedlings including significant inhibition (60%) of root growth. From a total of 780,100 EMS M2 seedlings, 125 putative resistant mutants were identified by visual inspection. Seeds were recovered from 33 of these plants. Selection of lines for further study was based on the strength of resistance, elimination of potential siblings and the health and fertility of adult plants.

[8] = tested on: Arabidopsis mutant line R090; test: Seedling resistance screen, line R090; conditions: line R090, allelic to axr1-3
Procedure: as §5
The mutants were crossed with wild-type Col-0 plants and the progeny were analyzed for resistance to DAS534. […] To determine the number of genetic loci identified in this screen, complementation tests were performed by crossing the herbicide-resistant mutants with each other and the known auxin-resistant mutant axr1-3 in a pair-wise fashion. […] Complementation Group 1 contained the mutants R009, R024, R045 and R127, and complementation Group 2 contained the mutants R051, R107 and R118. All seven selectively-resistant mutant lines were phenotypically normal when grown on agarose medium or in soil and they had normal fertility. […]

[9] = tested on: Arabidopsis deletion mutant line edm1; test: Root growth response of deletion mutant edm1; conditions: edm1, data not shown
Procedure: as §4
The R051 mutation was mapped to a 100 kb interval on chromosome 4 around 36 cM between markers C4—36 and C4—37 (FIG. 3). This interval contains 17 genes including At4g11260 which encodes the tetratricopeptide-repeat containing protein, SGT1b (SEQ ID NO: 4). […] The deletion mutant line edm1 lacks seven genes (At4g11220 through At4g11280) including SGT1b (Tor et al., Plant Cell 14: 993-1003, 2002). […] It was also very cross-resistant to picloram (20-fold, data not shown) similar to the Group 2 mutants. To determine if the DAS534-resistant mutants in complementation Group 2 contained mutations in SGT1b, At4g11260 was PCR amplified from genomic DNA from all three of the mutants. […]

Work on `O=C(O)c1nc(Cl)ccc1Cl` [clopyralid] yielded a fold resistance [1] of 50 fold.
For `O=C(O)Cc1cccc2ccccc12` [1-naphthylacetic acid], the “resistance or difference in response, in words” value (“resistance or difference” below) [1] was “no resistance”.
`Nc1cc(Cl)nc(C(=O)O)c1Cl` [aminopyralid] was tested, and the “effect of foliar spray application” value ([2]; 200 g/ha) was “minimal effect” and the “effect of foliar spray application” value ([3]; 200 g/ha, wild type Col-0) was “profound morphological effects and severely inhibited plant growth”.
In the case of `Nc1c(F)c(-c2ccc(Cl)cc2)nc(C(=O)O)c1Cl` [DAS534, 4-amino-3-chloro-5-fluoro-6-(4-chlorophenyl)pyridine-2-carboxylic acid], the “level of resistance, in words” value [4] is reported as “high level of resistance”, the “level of resistance, in words” value [5] is reported as “modest level of resistance” and the “hypocotyl elongation and cotyledon expansion” value ([6]; Group 1 mutant R127 and Group 2 mutant R051, 5 nM DAS534) is reported as “unaffected”. For the same compound, the inhibition at 0.01 µM ([7]; Arabidopsis thaliana, 10 nM DAS534 in agarose medium) was 60%, the “visible auxinic effects on seedlings” value ([7]; wild-type plants, 5 nM DAS534) was “slight agravitopism, have elongated hypocotyls and are unable to fully expand their cotyledons” and the “resistance of line R090” value [8] was “robust resistance”.
With `COc1c(Cl)ccc(Cl)c1C(=O)O` [dicamba] the “resistance or difference” value [1] was “no resistance”.
In the case of `O=C(O)c1ccccc1C(=O)Nc1cccc2ccccc12` [napthylphthalamic acid], the “resistance or difference” value [1] is reported as “no difference in response”.
`O=C(O)COc1ccc(Cl)cc1Cl` [2,4-D] was tested, and the “level of resistance, in words” value [4] was “high level of resistance”, the “level of resistance, in words” value [5] was “significantly lower levels of resistance to 2,4-D than axr1” and the “cross resistance of DAS534-resistant lines” value ([6]; 0.045 μM 2,4-D, seven lines R009, R024, R045, R127, R051, R107, R118) was “negligible resistance”. The “resistance of the mutant lines, in words” value ([6]; root growth dose response, both complementation groups) was “negligible resistance”, the “effect of foliar spray application” value ([2]; 50 g/ha) was “auxinic symptoms and growth reduction” and the “resistance of line R090” value [8] was “robust resistance”. The “effect of foliar spray application” value ([3]; 50 g/ha, wild type) was “auxinic symptoms and growth reduction”.
For `Nc1c(Cl)c(Cl)nc(C(=O)O)c1Cl` [picloram], the fold resistance [4] was 160 fold, the “level of resistance, in words” value [5] was “slightly more resistant” and the cross-resistance [9] was 20 fold. The “effect of foliar spray application” value ([2]; 200 g/ha) was “minimal effect” and the “effect of foliar spray application” value ([3]; 200 g/ha, wild type Col-0) was “profound morphological effects and severely inhibited plant growth”.
